Test [1] concerns SARS-CoV-2. It counts as cell-based.
Test [2] has as its system SARS-CoV-2. Put plainly: Hit validation across cell systems. It counts as cell-based. Particulars: Huh7, LNCaP, Caco-2, Vero E6, iAEC2.
The subject of test [3] is SARS-CoV-2. It counts as cell-based. As to conditions: for antiviral activity against SARS-CoV-2 in iAECs: iAEC2.
Test [4] deals with SARS-CoV-2. As to conditions: cited from earlier work.
For test [5], the system named is SARS-CoV-2. The test can be described thus: microbe, parasite or virus in culture. It is filed as cell-based. Particulars: Severe acute respiratory syndrome coronavirus 2, Huh-7, 48 h.
Test [6] has as its system SARS-CoV-2. It counts as cell-based. Particulars: Huh7, MOI of 1, 1,000 nM, 24 and 48 h p.i., versus untreated.
The subject of test [7] is SARS-CoV-2. Put plainly: Viral binding assay on Huh7 cells. As to conditions: lactoferrin 1,250 and 6,250 nM, remdesivir 10 nM, NaClO3 7 d. It is filed as cell-based.
Test [8] relates to SARS-CoV-2. The test can be described thus: SARS-CoV-2 infection of Caco-2 cells with MEK inhibitors. Particulars: Caco-2, 10 µM. It is filed as cell-based.

Consider 13 compounds from PMC8433531 (Proceedings of the National Academy of Sciences of the …, 2021).

`CCN(CC)CCCC(C)Nc1ccnc2cc(Cl)ccc12` (centres unmarked) [chloroquine]: the “concentrations at which efficacious” value in test [1] (Huh7, dose-response confirmation) is on record as “above 1 µM”.

Consider `CC(NC(=O)[C@H](Cc1ccccc1)NC(=O)OCc1ccccc1)C(=O)CF` (some centres unmarked) [Z-FA-FMK], for which, in test [2], the “efficacy across all tested cell systems” value is “maintained efficacy across all tested cell systems”.

On to `CC(C)/N=c1\cc2n(-c3ccc(Cl)cc3)c3ccccc3nc-2cc1Nc1ccc(Cl)cc1` [CLOFAZIMINE], for which the “antiviral activity against SARS-CoV-2 in iAECs” value (from here on “antiviral activity … in iAECs”) in test [3] is “dose-responsive antiviral activity”. Besides, the “viral infection in a hamster model of disease” value in test [4] is listed as “block viral infection”.

Turning to `O=C(NC1CCN(CCCCC2(C(=O)NCC(F)(F)F)c3ccccc3-c3ccccc32)CC1)c1ccccc1-c1ccc(C(F)(F)F)cc1` [Lomitapide], the “antiviral activity … in iAECs” value in test [3] is listed as “dose-responsive antiviral activity”. For the same compound, the “efficacy across all tested cell systems” value in test [2] is reported as “maintained efficacy across all tested cell systems”.

Take “transferrin: transferrin (Sigma-Aldrich; T2036), control to rule out iron chelation”: the “antiviral activity (iron chelation control)” value in test [1] (Huh7, 6,250 nM) is “inactive”.

On to `Cc1cc(OCCN2CCOCC2)nn1-c1ccc2ccccc2c1` [S1RA], for which, in test [3], the “antiviral activity at high MOI” value is recorded as “retained antiviral activity” and the “antiviral activity … in iAECs” value was “dose-responsive antiviral activity”.

As for `CCc1nc(C(N)=O)c(Nc2ccc(N3CCC(N4CCN(C)CC4)CC3)c(OC)c2)nc1NC1CCOCC1` [Gilteritinib], the “antiviral activity … in iAECs” value in test [3] was “dose-responsive antiviral activity”.

For orientation: IC50 means the point on the concentration scale where inhibition reaches its midpoint. Lower therefore signals greater potency. As to `CCC(CC)COC(=O)[C@H](C)N[P@](=O)(OC[C@H]1O[C@@](C#N)(c2ccc3c(N)ncnn23)[C@H](O)[C@@H]1O)Oc1ccccc1` [Remdesivir], in test [3], the “antiviral activity at high MOI” value is given as “retained antiviral activity” and the “antiviral activity … in iAECs” value is reported as “dose-responsive antiviral activity”. In test [2], the “efficacy across all tested cell systems” value is “maintained efficacy across all tested cell systems”. The IC50 in test [5] was 6.7 nM.

Regarding `O=C(c1ccc(F)c(F)c1Nc1ccc(I)cc1F)N1CC(O)([C@@H]2CCCCN2)C1` [cobimetinib], the “increase of viral infection” value in test [1] is on record as “greater than twofold increase”. Besides, the “percentage of viral RNA-positive cells” value in test [6] is listed as “increased at 48 h p.i., but not at 24 h p.i”.

As to `[Na+].[O-][Cl+2]([O-])[O-]` [NaClO3], the “SARS-CoV-2 attachment to Huh7 cells” value in test [7] is “reduced”.

On to `CC(C)[N+]1(C)[C@@H]2CC[C@H]1C[C@@H](OC(=O)C(CO)c1ccccc1)C2` (some centres unmarked) [Ipratropium Bromide], for which, in test [3], the “antiviral activity … in iAECs” value is “dose-responsive antiviral activity”. Moreover, the “efficacy across all tested cell systems” value in test [2] is “maintained efficacy across all tested cell systems”.

With `CC(=O)Nc1cccc(-n2c(=O)n(C3CC3)c(=O)c3c(Nc4ccc(I)cc4F)n(C)c(=O)c(C)c32)c1` [trametinib], the “increase of viral infection” value in test [1] is “greater than twofold increase”. The exacerbation of infection result in test [8] was “exacerbation effect was observed”.

With `Cn1cnc2c(F)c(Nc3ccc(Br)cc3F)c(C(=O)NOCCO)cc21` [binimetinib], the “increase of viral infection” value in test [1] is given as “greater than twofold increase”. In addition, the exacerbation of infection entry in test [8] is recorded as “exacerbation effect was observed”.
